Assays:
Assay type in all cases: cell-based
human endothelial cells = assay: Intracellular nanorheology (bead tracking) of 3-D-embedded endothelial cells
From the text: Endothelial cells cultured atop highly malleable surfaces retain a spherical configuration, fail to organize stress fibers, and are unable to exert tractional forces—a phenotype identical to that observed in 3-D-embedded, Fn matrix assembly-incompetent endothelial cells. A cell's internal stiffness is a viscoelastic property governed by cytoskeletal assembly, actin crosslinking, and the production of actomyosin-dependent stress. Internal stiffness changes as a function of the perceived stiffness of the surrounding substratum (Solon et al. 2007. Biophys. J., 93(12): 4453-4461). Therefore, the micromechanical properties of 3-D-embedded endothelial cells were monitored via intracellular nanorheology.
Prior to embedding in the 3-D fibrin matrix, endothelial cells were ballistically microinjected with 100 nm polystyrene beads to circumvent the endocytic pathway and subsequent directed motion of the beads. After 3 days of incubation, the beads dispersed in the cytoplasm and their centroids were tracked with high spatial and temporal resolution using fluorescence microscopy. […] Elastic moduli, which quantify the local resistance of the cytoplasm against small random forces acting on the surface of the beads, were derived from MSD curves to quantify cellular mechanical properties.
In the absence of Fn fibrillogenesis, an impaired ability of embedded endothelial cells to generate myosin-dependent forces and increase cytoplasmic stiffness was predicted to affect both Fn unfolding, as well as the ability of the cells to properly register the mechanical properties of the surrounding substratum (Wu et al. 1995. Cell, 83(5): 715-724; Zhong et al. 1998. J. Cell Biol., 141(2): 539-551; Baneyx et al. 2002. Proc. Natl. Acad. Sci. USA, 99(8): 5139-5143; Discher et al. 2005. Science, 310(5751): 1139-1143; Engler, supra; and Yoneda, supra). As such, the rheologic and functional characteristics of endothelial cells were assessed in the presence of the specific myosin ATPase inhibitor, blebbistatin. […]

[1] = system: Human umbilical vein endothelial cells; assay: Nesprin distribution at the nuclear envelope in 3-D fibrin gels; settings: VEGF/HGF-stimulated
From the text: Physical interactions between cytoskeletal networks and the nucleus are mediated by a family of Klarsicht, ANC-1, Syne homology (KASH) domain-containing proteins. The C-terminal domains of the proteins are embedded within the outer nuclear membrane, where they interact with the inner nuclear membrane via members of the SUN protein family (Crisp et al., 2006. J. Cell Biol., 172: 41-53; Dechat et al., supra; Starr, supra; Stewart et al., supra; Wilhelmsen et al., 2006. J. Cell Biol., 171: 799-810). In turn, SUN proteins span the inner nuclear membrane to establish binding interactions with a scaffold of lamin family members and nuclear pore complexes (Dechat et al., supra; Starr, supra; Stewart et al., supra). To determine whether this interaction plays a role in the nuclear morphology regulation by ECM remodeling, expression of nesprins-1 and 2 (also termed Syne-1 and 2) nesprin-3 was examined in 3-D-embedded endothelial cells. Nesprins-1 and 2 bind F-actin, while nesprin-3 indirectly interacts with intermediate filaments via binding of plectin (Crisp and Burke, 2008. FEBS Lett., 582: 2023-2032; Starr, supra; Stewart et al., supra).

[2] = system: Human umbilical vein endothelial cells; assay: Atomic force microscopy micro-indentation of pericellular ECM rigidity; settings: VEGF/HGF-stimulated, fibrin gels
Experimental: Since ECM rigidity regulates cytoskeletal remodeling and force generation, and consequently cell function (Engler et al., 2006. Cell, 126: 677-689; Wozniak and Chen, supra; Zajac and Discher, 2008. Curr. Opin. Cell Biol., 20: 609-615), atomic force microscopy micro-indentation (AFM) was employed to quantify endothelial cell-dependent changes in ECM remodeling. AFM was performed by first washing fibrin gels with phosphate buffered saline (PBS) after removing culture medium. Samples were mechanically characterized using an Asylum MFP-3D atomic force microscope (Asylum Research, Santa Barbara, Calif.). Micro-indentation was performed using a sphere-tipped probe (Novascan, Ames, Iowa) with a sphere diameter of 5 μm and a nominal spring constant of ˜60 pN/nm. The cantilever spring constant was confirmed by thermal fluctuation method (Thundat et al., 1994. Applied Physics Letters, 64: 2894-2896). The AFM system was calibrated by following the manufacturer's recommended procedure before each indentation measurement. AFM micro-indentation was performed in PBS solution at room temperature. Individual force-indentation profile was acquired at an indentation rate of 2 μm/s using deflection trigger mode with a trigger value of 200 nm. […] Shear modulus at each position was calculated from fitting force-indentation data using a Hertz sphere model (Richert et al., 2004, Biomacromolecules, 5: 1908-1916).

Compound	mean square displacement (MSD) of the beads (human endothelial cells; 3-D fibrin matrix, 3 days, relative to control cells)	elastic modulus of the cytoplasm (human endothelial cells; 3-D fibrin matrix, versus control cells, P<0.001)	nesprin distribution at the nuclear envelope [1]	3-D pericellular rigidity (shear modulus by AFM) [2]	cytoplasmic stiffness (human endothelial cells; 3-D fibrin gel, 50 μM blebbistatin)
FUD: 49-residue functional upstream domain of Streptococcus pyogenes F1 adhesion protein, SEQ ID NO: 10; fibronectin fibril assembly inhibitor (KDQSPLAGESGETEYITEVYGNQQNPVDIDKKLPNETGFSGNMVETEDT; Streptococcus pyogenes; Functional Upstream Domain (FUD) of F1 adhesion protein)	significantly increased	significantly lower	irregular nesprin distributions	significantly lower	
CNC(=O)[C@H](Cc1c[nH]c2ccccc12)NC(=O)[C@@H](CC(=O)NO)CC(C)C [GM6001]			irregular nesprin distributions	significantly lower	
Cc1ccc2c(c1)C(=O)C1(O)CCN(c3ccccc3)C1=N2 (stereo not shown) [blebbistatin]					failed to increase

From patent US8697081B2, “Method of modulating neovascularization” (The Regents of the University of Michigan, priority 2008, dated 2014)
